The text below walks through data of US20040209914A1, “Aromatic sulfone hydroxamic acids and their use as protease inhibitors” (priority 2000, published 2004).

Common to all, as to assay: biochemical
In one experiment the target is T1, Recombinant human MMP-1 (Homo sapiens, UniProt P03956).
T1 construct: made in house; host or cells: transfected HT-1080 cells
T1 sequence (P03956 100-469): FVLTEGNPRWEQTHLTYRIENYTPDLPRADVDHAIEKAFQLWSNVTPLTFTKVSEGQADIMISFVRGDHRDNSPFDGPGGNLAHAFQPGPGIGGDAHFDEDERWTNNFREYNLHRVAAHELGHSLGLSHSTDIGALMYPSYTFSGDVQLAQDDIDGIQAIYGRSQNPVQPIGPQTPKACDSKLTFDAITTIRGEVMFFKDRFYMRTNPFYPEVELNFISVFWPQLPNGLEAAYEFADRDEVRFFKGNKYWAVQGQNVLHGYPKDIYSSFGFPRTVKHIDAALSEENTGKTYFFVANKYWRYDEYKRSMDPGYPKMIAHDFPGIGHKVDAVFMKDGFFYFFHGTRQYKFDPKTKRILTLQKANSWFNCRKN
To be noted: fluorogenic MCA-peptide substrate, pH 7.5, room temperature. How it is done:
Recombinant human MMP-1, MMP-2, MMP-9, MMP-13, and were used in this assay. These enzymes were prepared in the Assignee's es following usual laboratory procedures. Specifics for preparing and e enzymes can be found in the scientific literature describing these See, e.g., Enzyme Nomenclature (Academic Press, San Diego, Calif., d the citations therein).
The MMP-1 was obtained from MMP-1 expressing transfected HT-1080 cells provided by Dr. Harold Welgus of Washington University in St. Louis, Mo. The MMP-1 was activated using 4-aminophenylmercuric acetate (APMA), and then purified over a hydroxamic acid column.
The enzyme substrate was a methoxycoumarin-containing polypeptide having the following sequence:
MCA-ProLeuGlyLeuDpaAlaArgNH2
Here, “MCA” is methoxycoumarin and “Dpa” is 3-(2,4-dinitrophenyl)-L-2,3-diaminopropionyl alanine.
These solutions were then compared to a control (which contained equal amount of DMSO/buffer solution, but no hydroxamate compound) using Microfluor™ White Plates (Dynatech, Chantilly, Va.). Specifically, The MMPs were activated with APMA or trypsin. […] The control likewise was incubated at room temperature in separate plates with the MMP and 4 uM of the MMP substrate. […] Inhibition was measured as a reduction in fluorescent intensity as a function of inhibitor concentration using a Perkin Elmer (Norwalk, Conn.) L550 plate reader. The IC50's were then calculated from these measurements.

The next experiment has as its target T2, Recombinant human MMP-2 (Homo sapiens, UniProt P08253).
T2 construct: made in house
T2 sequence (P08253 110-660): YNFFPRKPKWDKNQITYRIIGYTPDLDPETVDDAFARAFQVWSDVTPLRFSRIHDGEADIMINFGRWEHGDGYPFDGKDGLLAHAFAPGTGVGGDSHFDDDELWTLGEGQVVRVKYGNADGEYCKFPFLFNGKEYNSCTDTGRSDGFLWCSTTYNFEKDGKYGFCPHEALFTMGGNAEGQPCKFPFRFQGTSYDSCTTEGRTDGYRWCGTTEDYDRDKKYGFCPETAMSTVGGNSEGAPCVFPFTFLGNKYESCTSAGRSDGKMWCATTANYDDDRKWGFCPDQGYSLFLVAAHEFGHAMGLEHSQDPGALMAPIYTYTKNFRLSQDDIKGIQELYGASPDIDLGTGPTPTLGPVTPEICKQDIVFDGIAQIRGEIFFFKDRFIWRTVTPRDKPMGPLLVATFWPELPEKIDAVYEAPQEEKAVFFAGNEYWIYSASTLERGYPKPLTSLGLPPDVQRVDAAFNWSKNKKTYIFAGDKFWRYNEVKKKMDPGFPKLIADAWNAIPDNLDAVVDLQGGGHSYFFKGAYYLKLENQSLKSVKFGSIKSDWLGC
As to conditions: fluorogenic MCA-peptide substrate, pH 7.5, room temperature; read-out: MMP-2 IC50. In a few lines:
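Activated (APMA or trypsin) recombinant human MMP-2, from transfected expressing cells, incubated at room temperature with 4 uM fluorogenic substrate MCA-Pro-Leu-Gly-Leu-Dpa-Ala-Arg-NH2 and hydroxamate inhibitor.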

The target of another experiment is T3, Recombinant human MMP-13 (Homo sapiens, UniProt P45452).
T3 construct: made in house; host or cells: baculovirus / insect cells
To be noted: fluorogenic MCA-peptide substrate, pH 7.5, room temperature; read-out: MMP-13 IC50. In a few lines: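 APMA-activated MMP (proenzyme purified on heparin agarose and chelating zinc columns) incubated at room temperature with 4 uM fluorogenic MCA-ProLeuGlyLeuDpaAlaArgNH2 substrate. Inhibition read as reduced fluorescence versus inhibitor concentration relative to a DMSO control, giving IC50.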

Each structure is given as a SMILES string. Some results are limits rather than exact numbers.

In general, IC50 refers to the concentration that gives 50% inhibition. `CCC(C)Cc1ccc(C(=O)C2CCN(c3ccc(S(=O)(=O)C4(C(=O)NO)CCOCC4)cc3)CC2)cc1` (stereo not drawn) [Example 382]: the IC50 at Recombinant human MMP-1 is over 10000 nM; on Recombinant human MMP-2, 1310 nM; at Recombinant human MMP-13 it was 0.3 nM.
Consider `COCCc1sc(CC(=O)C2CCN(c3ccc(S(=O)(=O)C4(C(=O)NO)CCOCC4)cc3)CC2)nc1C` [Example 374], for which the IC50 at Recombinant human MMP-1 is over 10000 nM; on Recombinant human MMP-2, 970 nM; at Recombinant human MMP-13 it was 5.6 nM.
For `O=C(c1ccc(CC2CCC2)cc1)C1CCN(c2ccc(S(=O)(=O)C3(C(=O)NO)CCN(C4CC4)CC3)cc2)CC1` [Example 196], in that order: over 10000 nM, 750 nM and 1 nM.
`CCc1ccc(C(=O)C2CCN(c3ccc(S(=O)(=O)C4(C(=O)NO)CCN(CCOC)CC4)cc3)CC2)cc1` [Example 212]: the IC50 was over 10000 nM on Recombinant human MMP-1, 110 nM on Recombinant human MMP-2 and 0.2 nM on Recombinant human MMP-13.
For `CCC(C)Cc1ccc(C(=O)C2CCN(c3ccc(S(=O)(=O)C4(C(=O)NO)CCN(CCOC)CC4)cc3)CC2)cc1` (stereo not drawn) [Example 205], in that order: over 10000 nM, 412 nM and under 0.1 nM.
Turning to `O=C(NO)C1(S(=O)(=O)c2ccc(N3CCC(Sc4nc5ccccc5s4)CC3)cc2)CCN(C2CC2)CC1` [Example 185], the IC50 was over 10000 nM at Recombinant human MMP-1, 87.4 nM on Recombinant human MMP-2 and 5.1 nM at Recombinant human MMP-13.
On to `CCc1ccc(C(=O)C2CCN(c3ccc(S(=O)(=O)C4(C(=O)NO)CCN(CC)CC4)cc3)CC2)cc1` [Example 222], for which the IC50 is over 10000 nM on Recombinant human MMP-1, 197 nM at Recombinant human MMP-2 and 1 nM on Recombinant human MMP-13.
For `O=C(C1CCN(c2ccc(S(=O)(=O)C3(C(=O)NO)CCOCC3)cc2)CC1)N1CCN(c2ccccc2Cl)CC1` [Example 4], in that order: over 10000 nM, 2900 nM and 15.6 nM.
Taken in the same sequence, the figures for `Cc1cc(C(=O)C2CCN(c3ccc(S(=O)(=O)C4(C(=O)NO)CCOCC4)cc3)CC2)ccc1OC(C)C` [Example 376] were over 10000 nM, 2190 nM and 6.4 nM.
Taken in the same sequence, the figures for `CCN1CCC(C(=O)NO)(S(=O)(=O)c2ccc(N3CCC(C(=O)c4ccc(CC5CCC5)cc4)CC3)cc2)CC1` [Example 195] were over 10000 nM, 463 nM and 0.3 nM.
Consider `COCCN1CCC(C(=O)NO)(S(=O)(=O)c2ccc(N3CCC(C(=O)c4ccc(Cl)c(C)c4)CC3)cc2)CC1` [Example 211], for which the half-inhibitory concentration (IC50) on Recombinant human MMP-1 was over 10000 nM; on Recombinant human MMP-2, 122 nM; on Recombinant human MMP-13 it was 1.2 nM.
For `O=C(c1ccc(F)c(F)c1)C1CCN(c2ccc(S(=O)(=O)C3(C(=O)NO)CCOCC3)cc2)CC1` [Example 302], in that order: over 10000 nM, 35 nM and 1.9 nM.
For `O=C(CN1CCN(C(=O)C2CCN(c3ccc(S(=O)(=O)C4(C(=O)NO)CCOCC4)cc3)CC2)CC1)N1CCCC1` [Example 16], in that order: over 10000 nM, 4800 nM and 42.5 nM.
On to `CCN1CCC(C(=O)NO)(S(=O)(=O)c2ccc(N3CCC(C(=O)c4ccc(CC5CCC5)cc4)CC3)cc2)CC1` [Example 232], for which the results for the IC50 on Recombinant human MMP-1, on Recombinant human MMP-2 and on Recombinant human MMP-13 were over 10000 nM, 624 nM and 1.3 nM, respectively.
For `COCCN1CCC(C(=O)NO)(S(=O)(=O)c2ccc(N3CCC(C(=O)c4ccc(OC)cc4)CC3)cc2)CC1` [Example 156], in that order: over 10000 nM, 1340 nM and 0.7 nM.
Taken in the same sequence, the figures for `COc1ccc(C(=O)C2CCN(c3ccc(S(=O)(=O)C4(C(=O)NO)CCN(CC5CC5)CC4)cc3)CC2)cc1` [Example 188] were over 10000 nM, 250 nM and 2 nM.
Take `C#CCN1CCC(C(=O)NO)(S(=O)(=O)c2ccc(N3CCC(C(=O)c4ccc(OC)cc4)CC3)cc2)CC1` [Example 151]: the half-inhibitory concentration (IC50) on Recombinant human MMP-1 was over 10000 nM; at Recombinant human MMP-2, 128 nM; at Recombinant human MMP-13, 1.3 nM.
As for `CC(C)Cc1ccc(C(=O)C2CCN(c3ccc(S(=O)(=O)C4(C(=O)NO)CCN(C5CC5)CC4)cc3)CC2)cc1` [Example 189], the IC50 was over 10000 nM at Recombinant human MMP-1, 258 nM on Recombinant human MMP-2 and under 0.1 nM at Recombinant human MMP-13.
For the compound `CCN1CCC(C(=O)NO)(S(=O)(=O)c2ccc(N3CCC(C(=O)c4ccc(OC)cc4)CC3)cc2)CC1` [Example 194], the IC50 was over 10000 nM at Recombinant human MMP-1, 1230 nM at Recombinant human MMP-2 and 9.1 nM at Recombinant human MMP-13.
Taken in the same sequence, the figures for `C=CCN1CCC(C(=O)NO)(S(=O)(=O)c2ccc(N3CCC(C(=O)c4ccc(OC)cc4)CC3)cc2)CC1` [Example 182] were over 10000 nM, 115 nM and 1.1 nM.
For `Cc1cc(C(=O)C2CCN(c3ccc(S(=O)(=O)C4(C(=O)NO)CCN(S(C)(=O)=O)CC4)cc3)CC2)ccc1Cl` [Example 219], in that order: over 10000 nM, 258 nM and 4.9 nM.
`O=C(c1ccc(CC2CCCC2)cc1)C1CCN(c2ccc(S(=O)(=O)C3(C(=O)NO)CCN(C4CC4)CC3)cc2)CC1` [Example 197]: the IC50 was over 10000 nM at Recombinant human MMP-1, 1720 nM on Recombinant human MMP-2 and 1.4 nM on Recombinant human MMP-13.
For `COc1ccc(C(=O)C2CCN(c3ccc(S(=O)(=O)C4(C(=O)NO)CCN(S(C)(=O)=O)CC4)cc3)CC2)cc1` [Example 206], the figures for the IC50 on Recombinant human MMP-1, on Recombinant human MMP-2 and at Recombinant human MMP-13 were over 10000 nM, 199 nM and 1.8 nM, respectively.
For `C#CCN1CCC(C(=O)NO)(S(=O)(=O)c2ccc(N3CCC(C(=O)c4ccc(C)cc4)CC3)cc2)CC1` [Example 152], in that order: over 10000 nM, 56.3 nM and 0.6 nM.
For `COc1ccc(C2CCN(c3ccc(S(=O)(=O)C4(C(=O)NO)CCN(C5CC5)CC4)cc3)CC2)cc1` [Example 260], in that order: over 10000 nM, 1.2 nM and 0.4 nM.
With `Cc1ccc(Cl)cc1N1CCN(C(=O)C2CCN(c3ccc(S(=O)(=O)C4(C(=O)NO)CCOCC4)cc3)CC2)CC1` [Example 6], the IC50 at Recombinant human MMP-1 is over 10000 nM; on Recombinant human MMP-2, over 10000 nM; at Recombinant human MMP-13 it was 18.1 nM.
Take `CCN1CCC(C(=O)NO)(S(=O)(=O)c2ccc(N3CCC(C(=O)c4ccc(N(C)C)cc4)CC3)cc2)CC1` [Example 168]: the IC50 at Recombinant human MMP-1 was over 10000 nM; on Recombinant human MMP-2 it was 2180 nM; at Recombinant human MMP-13, 2.1 nM.
Taken in the same sequence, the figures for `O=C(C1CCN(c2ccc(S(=O)(=O)C3(C(=O)NO)CCOCC3)cc2)CC1)N1CCN(CCO)CC1` [Example 10] were over 10000 nM, 6000 nM and 40 nM.
As to `O=C(c1ccc(CC2CCCC2)cc1)C1CCN(c2ccc(S(=O)(=O)C3(C(=O)NO)CCOCC3)cc2)CC1` [Example 379], the IC50 on Recombinant human MMP-1 is over 10000 nM; at Recombinant human MMP-2, 1270 nM; on Recombinant human MMP-13, 0.6 nM.
